Laboratory results: PubChem BioAssay (NCI)
Where “and” joins values, the source holds several entries; their conditions need not be identical. Equal entries are not always repeated.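 How tested: cells in 96-well plates exposed to compound for 48 hours at five concentrations. Abbreviation: GI50, concentration required for 50% inhibition of growth. TGI marks complete inhibition of growth.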

Columns and labels:
Test in all cases: NCI tumour cell line growth inhibition, 48 h
IGROV1 ovarian = system: IGROV1 ovarian
HOP-62 NSCLC = system: HOP-62 NSCLC
UACC-257 melanoma = system: UACC-257 melanoma
SN12C renal = system: SN12C renal
OVCAR-4 ovarian = system: OVCAR-4 ovarian
MOLT-4 leukemia = system: MOLT-4 leukemia
EKVX NSCLC = system: EKVX NSCLC
MCF7 breast = system: MCF7 breast
OVCAR-5 ovarian = system: OVCAR-5 ovarian
SK-MEL-2 melanoma = system: SK-MEL-2 melanoma
CAKI-1 renal = system: CAKI-1 renal
MDA-N = system: MDA-N
MDA-MB-231 breast = system: MDA-MB-231 breast
UACC-62 melanoma = system: UACC-62 melanoma
UO-31 renal = system: UO-31 renal
SW-620 colon = system: SW-620 colon
SF-295 CNS = system: SF-295 CNS

Structure (SMILES)	TGI (IGROV1 ovarian)	TGI (HOP-62 NSCLC)	TGI (UACC-257 melanoma)	TGI (SN12C renal)	TGI (OVCAR-4 ovarian)	TGI (MOLT-4 leukemia)	TGI (EKVX NSCLC)	TGI (MCF7 breast)	TGI (OVCAR-5 ovarian)	TGI (SK-MEL-2 melanoma)	TGI (CAKI-1 renal)	TGI (MDA-N)	TGI (MDA-MB-231 breast)	TGI (UACC-62 melanoma)	TGI (UO-31 renal)	TGI (SW-620 colon)	TGI (SF-295 CNS)	GI50 (HOP-62 NSCLC)	GI50 (MOLT-4 leukemia)	GI50 (MCF7 breast)
NC(=O)NNCc1c(-c2ccccc2)no[n+]1[O-]	> 100 µM	> 100 µM	> 100 µM	> 100 µM	> 100 µM	> 100 µM	> 100 µM	> 100 µM	> 100 µM	> 100 µM	> 100 µM	> 100 µM	> 100 µM	> 100 µM	> 100 µM	> 100 µM	> 100 µM			
COc1cc(C(C[N+](=O)[O-])SC(C)=O)ccc1OCc1ccccc1 (stereo not drawn)	7.36 µM	14.3 µM	10.5 µM	15.7 µM	27.7 µM	5.52 µM	37.9 µM	10.7 µM	29.6 µM	23.4 µM	27.7 µM	8.54 µM	13.3 µM	8.68 µM	10.3 µM	10.6 µM	10.3 µM			
CC(C)[Si]1(C(C)C)OCC2OC(n3c(C(=O)c4ccccc4)cc(=O)[nH]c3=O)CC2O[Si](C(C)C)(C(C)C)O1 (stereo not drawn)	10.1 µM	21.3 µM	6.04 µM	5.5 µM	8.36 µM	4.76 µM	14.6 µM	8.14 µM	10.1 µM	10.6 µM	17.9 µM	11.7 µM	5.67 µM	7.62 µM	6.98 µM	8.32 µM	13.8 µM			
COc1cc(C2c3[nH]c4ccccc4c3[C@@H](Nc3ccc(C#N)cc3)[C@H]3COC(=O)N23)cc(OC)c1O (stereo partly drawn)	3 µM	1.54 µM	3.29 µM	0.625 µM	4.4 µM	0.0634 µM	4.32 µM	2.7 µM	4.54 µM	0.752 µM	1.78 µM	1.57 µM	2.14 µM	0.651 µM	2.57 µM	1.49 µM	0.734 µM			
C=C1C(=O)O[C@H]2C/C(C)=C/CC[C@]3(C)CCC[C@](C)(CC[C@@H]12)O3	14.5 µM	> 50 µM	21.7 µM	34.2 µM	43.7 µM	15.7 µM	22.7 µM	49.4 µM	> 50 µM	17.9 µM	25.7 µM	> 50 µM	46.2 µM	24.4 µM	15.7 µM	17.7 µM	> 50 µM			
COc1cc(/C=N/c2ccccn2)cc(OC)c1OC	> 100 µM	> 100 µM	> 100 µM	> 100 µM	> 100 µM	> 100 µM	> 100 µM	> 100 µM	> 100 µM	> 100 µM	> 100 µM	> 59.4 µM	> 100 µM	> 100 µM	> 100 µM	> 100 µM	> 100 µM			
CCN(CC)c1ccc2cc(C(=O)NCc3ccccc3)c(=N)oc2c1	> 100 µM	> 100 µM	> 100 µM	> 100 µM	> 100 µM	> 100 µM	> 100 µM	> 100 µM	> 100 µM	> 100 µM	> 100 µM	> 100 µM	97 µM	> 100 µM	97.3 µM	> 100 µM	> 100 µM			
NC(=O)C(=CNC(=S)Nc1ccc(S(=O)(=O)Nc2ccccn2)cc1)C(N)=O	> 100 µM	> 100 µM	> 100 µM	> 100 µM	> 100 µM	5.76 µM	> 100 µM	> 100 µM	> 100 µM	> 100 µM	> 100 µM	> 100 µM	> 100 µM	> 100 µM	> 100 µM	> 100 µM	> 100 µM			
CC(=O)Oc1c(OC(C)C)c(C)c(O[Si](C(C)C)(C(C)C)C(C)C)c2[nH]c3ccccc3c12	> 100 µM	> 100 µM	> 100 µM	> 100 µM	> 100 µM	> 24.2 µM	> 100 µM	> 100 µM	> 100 µM	> 100 µM	> 100 µM	> 100 µM	> 100 µM	> 100 µM	> 100 µM	> 100 µM	> 100 µM			
N#Cc1ncn(CCO)c1N	> 100 µM	> 100 µM	> 100 µM	> 100 µM	> 100 µM	> 100 µM	> 100 µM	> 100 µM	> 100 µM	> 100 µM	> 100 µM	> 100 µM	> 100 µM	> 100 µM	> 100 µM	> 100 µM	> 100 µM			
CCN1CCN(c2nc3ccccc3nc2C(=O)c2ccc(OC)c(OC)c2)CC1	32.9 µM	> 100 µM	46.4 µM	> 100 µM	25.7 µM	30.5 µM	57.4 µM	45.5 µM	> 100 µM	> 100 µM	> 100 µM	97.7 µM	32 µM	> 100 µM	47.1 µM	> 100 µM	30 µM			
CCCCC(/C=C\COC1CCCCO1)=C/C(=O)OCC (stereo not drawn)	> 100 µM	> 100 µM	> 100 µM	> 100 µM	> 100 µM	71.5 µM	> 100 µM	> 100 µM	> 100 µM	> 100 µM	> 100 µM	> 100 µM	> 100 µM	> 100 µM	> 100 µM	> 100 µM	> 100 µM			
CN(C)C(=O)OC1=CC2CCC(C1)N2C (stereo not drawn)	> 100 µM	> 100 µM	> 100 µM	> 100 µM	> 100 µM	> 100 µM	> 100 µM	> 100 µM	> 100 µM	> 100 µM	> 100 µM	> 100 µM	> 100 µM	> 100 µM	> 100 µM	> 100 µM	> 100 µM			
CC(C)CC1c2[nH]c3ccccc3c2C[C@H]2C(=O)NC(CCCCNC(=O)OC(C)(C)C)C(=O)N12 (stereo partly drawn)	> 100 µM	> 100 µM	> 100 µM	77.4 µM	> 100 µM	51.8 µM	> 100 µM	> 100 µM	> 100 µM	46.8 µM	> 100 µM	> 100 µM	51.1 µM	> 100 µM	> 100 µM	> 100 µM	40.9 µM			
Cc1cc2ccc(OC(=O)c3ccc(N=C(N)N)cc3)cc2oc1=O	> 100 µM	48.5 µM	> 100 µM	64 µM	46.6 µM	54.4 µM	> 100 µM	54.9 µM	> 100 µM	60.9 µM	> 100 µM	83.8 µM	49.2 µM	79.1 µM	> 100 µM	78.5 µM	> 100 µM			
CC(=O)C1(C)CC(C#N)(C#N)C(C#N)=C1N (stereo not drawn)	> 100 µM	> 100 µM	> 100 µM	> 100 µM	> 100 µM	> 100 µM	85.2 µM	> 100 µM	> 100 µM	> 100 µM	> 100 µM	> 100 µM	> 100 µM	> 100 µM	> 100 µM	> 100 µM	> 100 µM			
CC1OC(OC2C(OC(=O)[C@]34CCC(C)(C)C[C@H]3C3=CC[C@@H]5[C@@]6(C)CC[C@H](OC7OC(CO)C(O)C(O)C7OC7OC(CO)C(O)C(O)C7O)C(C)(C)[C@@H]6CC[C@@]5(C)[C@]3(C)CC4)OCC(O)C2O)C(O)C(O)C1OC1OCC(O)C(OC2OCC(O)C(O)C2O)C1O (stereo partly drawn)	26.4 µM and 24.3 µM	23.3 µM and 11.2 µM	6.02 µM and 5.36 µM	4.82 µM and 4.43 µM	19.2 µM and 21.6 µM	22.4 µM and 26.6 µM	8.6 µM and 7.32 µM	11 µM and 7.69 µM	16.7 µM and 16 µM	8.07 µM and 8.23 µM	15.8 µM and 15.3 µM	3.58 µM and 3.09 µM	8.71 µM and 9.09 µM	6.58 µM and 4.71 µM	4.14 µM and 3.85 µM	25.3 µM and 23.6 µM	13.1 µM and 10.7 µM	9.23 µM and 3.83 µM	2.87 µM and 9.41 µM	3.76 µM and 1.87 µM
COc1ccc(NC(=O)CC(=O)NNC(Sc2ccccc2)c2cc(N=Nc3ccc(Br)cc3)ccc2O)cc1 (stereo not drawn)	> 10 µM	> 10 µM	> 10 µM	> 10 µM	> 10 µM	> 10 µM	> 10 µM	> 10 µM	> 10 µM	> 10 µM	> 10 µM	> 10 µM	> 10 µM	> 10 µM	> 10 µM	> 10 µM	> 10 µM			
O=C(CC(c1ccccc1)C1C(=O)NC(=S)NC1=O)c1ccc([N+](=O)[O-])cc1 (stereo not drawn)	> 100 µM	> 100 µM	> 100 µM	> 100 µM	> 100 µM	> 100 µM	> 100 µM	37.5 µM	> 100 µM	> 100 µM	59.4 µM	> 100 µM	> 100 µM	> 100 µM	> 100 µM	> 100 µM	> 100 µM			
CN=C(N)N=Nc1c(O)[nH]c2ccccc12	> 100 µM	> 100 µM	> 100 µM	> 100 µM	> 100 µM	> 100 µM	> 100 µM	> 100 µM	> 100 µM	> 100 µM	> 100 µM	> 100 µM	> 100 µM	> 100 µM	> 100 µM	> 100 µM	> 100 µM			
